{"source": "patent US20240101540A1", "about": "“TARGETED PROTEIN DEGRADATION OF PARP14 FOR USE IN THERAPY” (Ribon Therapeutics, Inc., priority 2022, published 2024)", "molecular_target": "T1, catalytic domain of human PARP14 (residues 1611 to 1801) with NanoLuc tag (Homo sapiens, UniProt Q460N5)", "T1 construct": "expressed in transfected cells; host or cells: HEK-293T cells (ATCC), pcDNA3.1(-) vector", "T1 sequence (Q460N5 1611-1801)": "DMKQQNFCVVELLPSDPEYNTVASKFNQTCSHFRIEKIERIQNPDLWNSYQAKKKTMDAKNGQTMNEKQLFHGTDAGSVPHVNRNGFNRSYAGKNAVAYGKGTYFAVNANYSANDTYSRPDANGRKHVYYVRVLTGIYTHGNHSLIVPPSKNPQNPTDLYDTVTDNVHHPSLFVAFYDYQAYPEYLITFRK", "assay": "NanoLuc assay for the degradation of PARP14 (NanoLuc-tagged PARP14 overexpressed in HEK-293T cells, 2 hours)", "assay_type": "cell-based", "settings": "Assay A (Example A): NanoLuc-tagged PARP14 degradation in HEK-293T cells, read-out: DC50", "note": "Structures can show the parent of a compound that is named as a salt."}
{"smiles": "O=C1CCC(N2C(=O)c3cccc(NCCOCCOCCC(=O)N4CCC(COc5cc(F)c6c(=O)[nH]c(CSC7CCOCC7)nc6c5)CC4)c3C2=O)C(=O)N1", "note": "(centres unmarked) [Example 4, 2-(2,6-dioxopiperidin-3-yl)-4-((2-(2-(3-(4-(((5-fluoro-4-oxo-2-(((tetrahydro-2H-pyran-4-yl)thio)methyl)-3,4-dihydroquinazolin-7-yl)oxy)methyl)piperidin-1-yl)-3-oxopropoxy)ethoxy)ethyl)amino)isoindoline-1,3-dione]", "values": [{"measurement": "DC50", "value": "< 100", "unit": "nM"}]}
{"smiles": "O=C1CCN(c2ccc(C3CCN(CC4CCN(C(=O)CN5CCC(COc6cc(F)c7c(=O)[nH]c(CSC8CCOCC8)nc7c6)CC5)CC4)CC3)cc2)C(=O)N1", "note": "[Example 19, 1-(4-(1-((1-(2-(4-(((5-fluoro-4-oxo-2-(((tetrahydro-2H-pyran-4-yl)thio)methyl)-3,4-dihydroquinazolin-7-yl)oxy)methyl)piperidin-1-yl)acetyl)piperidin-4-yl)methyl)piperidin-4-yl)phenyl)dihydropyrimidine-2,4(1H,3H)-dione]", "values": [{"measurement": "DC50", "value": "< 100", "unit": "nM"}]}
{"smiles": "O=C1CCC(Nc2ccc(OC3CC(CN4CCC(COc5cc(F)c6c(=O)[nH]c(CSC7CCOCC7)nc6c5)CC4)C3)cc2)C(=O)N1", "note": "(centres unmarked) [Example 47, 3-({4-[3-({4-[({5-fluoro-2-[(oxan-4-ylsulfanyl)methyl]-4-oxo-3H-quinazolin-7-yl}oxy)methyl]piperidin-1-yl}methyl)cyclobutoxy]phenyl}amino)piperidine-2,6-dione]", "values": [{"measurement": "DC50", "value": "< 100", "unit": "nM"}]}
{"smiles": "O=C1CCC(Nc2ccc(N3CCN(CCN4CCC(COc5cc(F)c6c(=O)[nH]c(CS[C@H]7CC[C@H](O)CC7)nc6c5)CC4)CC3)cc2)C(=O)N1", "note": "(some centres unmarked) [Example 83, 3-((4-(4-(2-(4-(((5-fluoro-2-((((1r,4r)-4-hydroxycyclohexyl)thio)methyl)-4-oxo-3,4-dihydroquinazolin-7-yl)oxy)methyl)piperidin-1-yl)ethyl)piperazin-1-yl)phenyl)amino)piperidine-2,6-dione]", "values": [{"measurement": "DC50", "value": "< 100", "unit": "nM"}]}
{"smiles": "O=C(CN1CCC(COc2cc(F)c3c(=O)[nH]c(CSC4CCOCC4)nc3c2)CC1)NCCCCCCCCNc1cccc2c1C(=O)N(C1CCC(=O)NC1=O)C2=O", "note": "(centres unmarked) [Example 3, N-(8-((2-(2,6-dioxopiperidin-3-yl)-1,3-dioxoisoindolin-4-yl)amino)octyl)-2-(4-(((5-fluoro-4-oxo-2-(((tetrahydro-2H-pyran-4-yl)thio)methyl)-3,4-dihydroquinazolin-7-yl)oxy)methyl)piperidin-1-yl)acetamide]", "values": [{"measurement": "DC50", "value": "< 100", "unit": "nM"}]}
{"smiles": "O=C(CN1CCC(COc2cc(F)c3c(=O)[nH]c(CSC4CCOCC4)nc3c2)CC1)NCCOCCCNc1cccc2c1C(=O)N(C1CCC(=O)NC1=O)C2=O", "note": "(centres unmarked) [Example 13, N-(2-(3-((2-(2,6-dioxopiperidin-3-yl)-1,3-dioxoisoindolin-4-yl)amino)propoxy)ethyl)-2-(4-(((5-fluoro-4-oxo-2-(((tetrahydro-2H-pyran-4-yl)thio)methyl)-3,4-dihydroquinazolin-7-yl)oxy)methyl)piperidin-1-yl)acetamide]", "values": [{"measurement": "DC50", "value": "< 100", "unit": "nM"}]}
{"smiles": "O=C(CN1CCC(COc2cc(F)c3c(=O)[nH]c(CSC4CCOCC4)nc3c2)CC1)NCCNc1cccc2c1C(=O)N(C1CCC(=O)NC1=O)C2=O", "note": "(centres unmarked) [Example 2, N-(2-((2-(2,6-dioxopiperidin-3-yl)-1,3-dioxoisoindolin-4-yl)amino)ethyl)-2-(4-(((5-fluoro-4-oxo-2-(((tetrahydro-2H-pyran-4-yl)thio)methyl)-3,4-dihydroquinazolin-7-yl)oxy)methyl)piperidin-1-yl)acetamide]", "values": [{"measurement": "DC50", "value": "< 100", "unit": "nM"}]}
{"smiles": "O=C1CCC(Nc2ccc(OC3CC(CN4CCC(COc5cc(F)c6c(=O)[nH]c(CS[C@H]7CC[C@H](O)CC7)nc6c5)CC4)C3)cc2)C(=O)N1", "note": "(some centres unmarked) [Example 90, 3-((4-(3-((4-(((5-fluoro-2-((((1r,4r)-4-hydroxycyclohexyl)thio)methyl)-4-oxo-3,4-dihydroquinazolin-7-yl)oxy)methyl)piperidin-1-yl)methyl)cyclobutoxy)phenyl)amino)piperidine-2,6-dione formate]", "values": [{"measurement": "DC50", "value": "< 100", "unit": "nM"}]}
{"smiles": "O=C1CCC(Nc2ccc(N3CC(N4CCC(COc5cc(F)c6c(=O)[nH]c(CSC7CCOCC7)nc6c5)CC4)C3)cc2)C(=O)N1", "note": "(centres unmarked) [Example 51, 3-((4-(3-(4-(((5-fluoro-4-oxo-2-(((tetrahydro-2H-pyran-4-yl)thio)methyl)-3,4-dihydroquinazolin-7-yl)oxy)methyl)piperidin-1-yl)azetidin-1-yl)phenyl)amino)piperidine-2,6-dione]", "values": [{"measurement": "DC50", "value": "< 100", "unit": "nM"}]}
{"smiles": "O=C1CCC(N2C(=O)c3cccc(NCCCCC(=O)N4CCC(COc5cc(F)c6c(=O)[nH]c(CSC7CCOCC7)nc6c5)CC4)c3C2=O)C(=O)N1", "note": "(centres unmarked) [Example 12, 2-(2,6-dioxopiperidin-3-yl)-4-((5-(4-(((5-fluoro-4-oxo-2-(((tetrahydro-2H-pyran-4-yl)thio)methyl)-3,4-dihydroquinazolin-7-yl)oxy)methyl)piperidin-1-yl)-5-oxopentyl)amino)isoindoline-1,3-dione]", "values": [{"measurement": "DC50", "value": "< 100", "unit": "nM"}]}
{"smiles": "O=C1CC[C@@H](Nc2ccc(N3CCN(CCN4CCC(COc5cc(F)c6c(=O)[nH]c(CSC7CCOCC7)nc6c5)CC4)CC3)cc2)C(=O)N1", "note": "(single isomer, unassigned) [Example 48b]", "values": [{"measurement": "DC50", "value": "< 100", "unit": "nM"}]}
{"smiles": "O=C1CCC(N2Cc3cc(C#CCN4CCC(COc5cc(F)c6c(=O)[nH]c(CSC7CCOCC7)nc6c5)CC4)ccc3C2=O)C(=O)N1", "note": "(centres unmarked) [Example 29, 3-(5-(3-(4-(((5-fluoro-4-oxo-2-(((tetrahydro-2H-pyran-4-yl)thio)methyl)-3,4-dihydroquinazolin-7-yl)oxy)methyl)piperidin-1-yl)prop-1-yn-1-yl)-1-oxoisoindolin-2-yl)piperidine-2,6-dione]", "values": [{"measurement": "DC50", "value": "< 100", "unit": "nM"}]}
{"smiles": "O=C1CCC(N2C(=O)c3ccc(NCC(=O)N4CCC(COc5cc(F)c6c(=O)[nH]c(CSC7CCOCC7)nc6c5)CC4)cc3C2=O)C(=O)N1", "note": "(centres unmarked) [Example 14, 2-(2,6-dioxopiperidin-3-yl)-5-((2-(4-(((5-fluoro-4-oxo-2-(((tetrahydro-2H-pyran-4-yl)thio)methyl)-3,4-dihydroquinazolin-7-yl)oxy)methyl)piperidin-1-yl)-2-oxoethyl)amino)isoindoline-1,3-dione]", "values": [{"measurement": "DC50", "value": "< 100", "unit": "nM"}]}
{"smiles": "O=C1CCC(Nc2ccc(N3CC4CCC(C3)N4CCN3CCC(COc4cc(F)c5c(=O)[nH]c(CSC6CCOCC6)nc5c4)CC3)cc2)C(=O)N1", "note": "(centres unmarked) [Example 95, 3-((4-(8-(2-(4-(((5-fluoro-4-oxo-2-(((tetrahydro-2H-pyran-4-yl)thio)methyl)-3,4-dihydroquinazolin-7-yl)oxy)methyl)piperidin-1-yl)ethyl)-3,8-diazabicyclo[3.2.1]octan-3-yl)phenyl)amino)piperidine-2,6-dione]", "values": [{"measurement": "DC50", "value": "< 100", "unit": "nM"}]}
{"smiles": "O=C1CCC(N2C(=O)c3cccc(NCCCCCCCCC(=O)N4CCC(COc5cc(F)c6c(=O)[nH]c(CSC7CCOCC7)nc6c5)CC4)c3C2=O)C(=O)N1", "note": "(centres unmarked) [Example 9, 2-(2,6-dioxopiperidin-3-yl)-4-((9-(4-(((5-fluoro-4-oxo-2-(((tetrahydro-2H-pyran-4-yl)thio)methyl)-3,4-dihydroquinazolin-7-yl)oxy)methyl)piperidin-1-yl)-9-oxononyl)amino)isoindoline-1,3-dione]", "values": [{"measurement": "DC50", "value": "< 100", "unit": "nM"}]}
{"smiles": "O=C1CCC(N2C(=O)c3ccc(N4CC(CN5CCC(COc6cc(F)c7c(=O)[nH]c(CSC8CCOCC8)nc7c6)CC5)C4)cc3C2=O)C(=O)N1", "note": "(centres unmarked) [Example 36, 2-(2,6-dioxopiperidin-3-yl)-5-(3-((4-(((5-fluoro-4-oxo-2-(((tetrahydro-2H-pyran-4-yl)thio)methyl)-3,4-dihydroquinazolin-7-yl)oxy)methyl)piperidin-1-yl)methyl)azetidin-1-yl)isoindoline-1,3-dione]", "values": [{"measurement": "DC50", "value": "< 100", "unit": "nM"}]}
{"smiles": "O=C1CCC(N2C(=O)c3ccc(N4CCC(CN5CCC(COc6cc(F)c7c(=O)[nH]c(CSC8CCOCC8)nc7c6)CC5)CC4)cc3C2=O)C(=O)N1", "note": "(centres unmarked) [Example 34, 2-(2,6-dioxopiperidin-3-yl)-5-(4-((4-(((5-fluoro-4-oxo-2-(((tetrahydro-2H-pyran-4-yl)thio)methyl)-3,4-dihydroquinazolin-7-yl)oxy)methyl)piperidin-1-yl)methyl)piperidin-1-yl)isoindoline-1,3-dione]", "values": [{"measurement": "DC50", "value": "< 100", "unit": "nM"}]}
{"smiles": "O=C1CCC(N2C(=O)c3cccc(N4CCN(CC5CCN(C(=O)CN6CCC(COc7cc(F)c8c(=O)[nH]c(CCC9CCOCC9)nc8c7)CC6)CC5)CC4)c3C2=O)C(=O)N1", "note": "(centres unmarked) [Example 39, 2-(2,6-dioxopiperidin-3-yl)-4-(4-((1-(2-(4-(((5-fluoro-4-oxo-2-(2-(tetrahydro-2H-pyran-4-yl)ethyl)-3,4-dihydroquinazolin-7-yl)oxy)methyl)piperidin-1-yl)acetyl)piperidin-4-yl)methyl)piperazin-1-yl)isoindoline-1,3-dione]", "values": [{"measurement": "DC50", "value": "< 100", "unit": "nM"}]}
{"smiles": "O=C1CCC(N2C(=O)c3ccc(N4CCC(COc5cc(F)c6c(=O)[nH]c(CSC7CCOCC7)nc6c5)CC4)cc3C2=O)C(=O)N1", "note": "(centres unmarked) [Example 23, 2-(2,6-dioxopiperidin-3-yl)-5-(4-(((5-fluoro-4-oxo-2-(((tetrahydro-2H-pyran-4-yl)thio)methyl)-3,4-dihydroquinazolin-7-yl)oxy)methyl)piperidin-1-yl)isoindoline-1,3-dione]", "values": [{"measurement": "DC50", "value": "< 100", "unit": "nM"}]}
{"smiles": "O=C1CCC(Nc2ccc(N3CCN(CCN4CCC(COc5cc(F)c6c(=O)[nH]c(CSC7CCOCC7)nc6c5)CC4)CC3)c(C(F)(F)F)c2)C(=O)N1", "note": "(centres unmarked) [Example 50, 3-((4-(4-(2-(4-(((5-fluoro-4-oxo-2-(((tetrahydro-2H-pyran-4-yl)thio)methyl)-3,4-dihydroquinazolin-7-yl)oxy)methyl)piperidin-1-yl)ethyl)piperazin-1-yl)-3-(trifluoromethyl)phenyl)amino)piperidine-2,6-dione]", "values": [{"measurement": "DC50", "value": "< 100", "unit": "nM"}]}
